Data published in ChEMBL document CHEMBL6127038, “How many organic small molecules might be used to treat COVID-19? From natural products to synthetic agents” (Eur J Med Chem, 2024).

Experiments:
[1] = tested on: SARS-CoV-2; test: Antiviral activity against SARS-CoV-2 infected in human Calu-3 cells assessed as reduction in viral growth measured after 48 hrs by qRT-PCR analysis; type: functional, organism-based; conditions: Severe acute respiratory syndrome coronavirus 2, Calu-3, 48 h
[2] = tested on: SARS-CoV-2; test: Antiviral activity against wild type SARS-CoV-2 Omicron BA.1 infected in HEK293T cells assessed as reduction in viral replication measured after 48 hrs by Nano-Glo luciferase assay; type: functional, organism-based; conditions: Severe acute respiratory syndrome coronavirus 2, Omicron BA.1, HEK-293T
[3] = tested on: SARS-CoV-2; test: Antiviral activity against wild type SARS-CoV-2 Omicron BA.5 infected in HEK293T cells assessed as reduction in viral replication measured after 48 hrs by Nano-Glo luciferase assay; type: functional, organism-based; conditions: Severe acute respiratory syndrome coronavirus 2, HEK-293T
[4] = biological target: Replicase polyprotein 1ab (Human coronavirus 229E, UniProt P0C6X1); test: Inhibition of HCov-229E 3CLpro by FRET assay
Replicase polyprotein 1ab (Human coronavirus 229E, UniProt P0C6X1), sequence (P0C6X1 2966-3267 limits assumed): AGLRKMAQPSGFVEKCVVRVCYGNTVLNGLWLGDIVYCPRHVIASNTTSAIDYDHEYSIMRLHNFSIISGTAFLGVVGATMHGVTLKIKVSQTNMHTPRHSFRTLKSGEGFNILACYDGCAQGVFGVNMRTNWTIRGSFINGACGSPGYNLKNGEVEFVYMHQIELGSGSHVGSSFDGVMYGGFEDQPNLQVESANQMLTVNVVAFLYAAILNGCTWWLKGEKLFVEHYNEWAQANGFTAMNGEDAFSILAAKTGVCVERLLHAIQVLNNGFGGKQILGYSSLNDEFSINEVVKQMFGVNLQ

[5] = Inhibition of DENV-2 NS2B/NS3 protease; design: species or system dengue virus type 2
[6] = tested on: SARS-CoV-2; test: Anti-viral activity against SARS-CoV-2 infected in human A549 cells expressing hACE2 by firefly reporter assay; type: functional, organism-based; conditions: Severe acute respiratory syndrome coronavirus 2, A549
[7] = biological target: Procathepsin L (Homo sapiens, UniProt P07711); test: Inhibition of cathepsin L (unknown origin)
Procathepsin L, sequence (P07711 whole entry): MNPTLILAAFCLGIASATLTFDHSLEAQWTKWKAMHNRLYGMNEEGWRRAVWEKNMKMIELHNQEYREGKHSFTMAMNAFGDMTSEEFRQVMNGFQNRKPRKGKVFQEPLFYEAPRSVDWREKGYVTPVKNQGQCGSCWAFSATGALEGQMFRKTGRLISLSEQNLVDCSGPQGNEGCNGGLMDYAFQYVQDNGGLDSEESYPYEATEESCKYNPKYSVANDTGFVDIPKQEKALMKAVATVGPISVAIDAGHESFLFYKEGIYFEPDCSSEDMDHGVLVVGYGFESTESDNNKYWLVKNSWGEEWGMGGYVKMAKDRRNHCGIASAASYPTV

[8] = biological target: T1, Replicase polyprotein 1ab (Severe acute respiratory syndrome coronavirus 2, UniProt P0DTD1); test: Inhibition of SARS-CoV-2 3CLPro
[9] = biological target: T1, Replicase polyprotein 1ab; test: Inhibition of SARS-CoV-2 RdRp
[10] = tested on: SARS-CoV-2; test: Antiviral activity against SARS-CoV-2 infected in human HPAEpiC cells assessed as reduction in viral growth; type: functional, organism-based; conditions: Severe acute respiratory syndrome coronavirus 2, HPAEpiC

Work on `CCC(CC)COC(=O)[C@H](C)N[P@](=O)(OC[C@H]1O[C@@](c2noc(C(F)(F)F)n2)(c2ccc3c(N)ncnn23)[C@@H]2OC(C)(C)O[C@@H]21)Oc1ccccc1` yielded an IC50 [1] of 19.3 µM.

Work on `CCCCCCCCCC[C@@H]1CCC[C@]2(C=C(CO)[C@H]3CC(=O)C(C)=C[C@H]3O2)O1` yielded an EC50 [2] of 100 nM and an EC50 [3] of 160 nM.

`C=C1NC(=O)[C@]2(C)CSC(=N2)c2csc(n2)[C@]2(C)CSC(=N2)[C@@H]([C@@H](C)CC)NC(=O)[C@@H](C)NC(=O)/C(=C\C(C)C)COC(=O)c2csc(n2)[C@H](C(C)C)N(C)C(=O)[C@H](COC)NC1=O` gave an IC50 [4] of 2390 nM and an IC50 [5] of 560 nM.

In the case of `CCOC(=O)/C=C/[C@H](C[C@@H]1CCNC1=O)NC(=O)[C@H](Cc1ccccc1)NC(=O)[C@@H](N)Cc1ccccc1`, the IC50 [6] is reported as 8.2 nM and the IC50 [7] is reported as 60 nM.

Work on `CO[C@@H]1C[C@H](O[C@H]2C[C@](C)(CO)[C@@H]3CC[C@@]4(C)[C@@H]5CC[C@@H]6[C@H](CC(=O)[C@]7(C)C8=COC(N[C@H](C)C(C)C)=N[C@]8(C)[C@@H](O)[C@@H]8O[C@@]687)[C@@]5(C)CC[C@@H]4[C@@]3(C)[C@@H]2O)O[C@H](C)[C@H]1O` yielded an IC50 [4] of 6.6 nM and an IC50 [8] of 74 nM.

`CCCCC/C=C\C/C=C\CCCCCCCCOC(=O)[C@H](C)NP(=O)(OC[C@H]1O[C@@](C#N)(c2ccc3c(N)ncnn23)[C@H](O)[C@@H]1O)Oc1ccccc1` (stereo partly specified) gave an EC50 [9] of 440 nM.

`C=C1C(=O)[C@@]23C(=O)[C@@H](O)[C@@H]4C(C)(C)C[C@@H]5C(=O)OCC54[C@@H]2CC[C@@H]1[C@H]3OC(=O)C1Cc2ccccc2C1` (stereo partly specified) showed an EC50 [10] of 19 nM.
